Measurements published in EP4664463A1, “COMPUTER-IMPLEMENTED METHOD FOR OLFACTORY PROPERTY PREDICTION” (Givaudan SA, priority 2024, dated 2025).
Where two headings read alike, the source gives them in different places. Each block holds one compound with its values, some of them ahead of it.

Experiments:
OR2T4 [1] = biological target: T1, OR2T4 (Homo sapiens, UniProt Q8NH00); assay: cell-based; format: cell-based
T1 construct: expressed in transfected cells; host or cells: HEK293T cells stably expressing human RTP1S (V227I) and RTP2 (L220R)

OR2T4 [2] = assay: cell-based; format: cell-based, human
OR2T4 [3] = biological target: T2, OR2T4 (Homo sapiens, UniProt Q8NH00, D328E/G331D/M330K); assay: cell-based; format: cell-based
T2 construct: expressed in transfected cells; host or cells: HEK293T cells stably expressing human RTP1S (V227I) and RTP2 (L220R)
T2 sequence (Q8NH00 with tags, fused parts or gaps D328E/M330K/G331D): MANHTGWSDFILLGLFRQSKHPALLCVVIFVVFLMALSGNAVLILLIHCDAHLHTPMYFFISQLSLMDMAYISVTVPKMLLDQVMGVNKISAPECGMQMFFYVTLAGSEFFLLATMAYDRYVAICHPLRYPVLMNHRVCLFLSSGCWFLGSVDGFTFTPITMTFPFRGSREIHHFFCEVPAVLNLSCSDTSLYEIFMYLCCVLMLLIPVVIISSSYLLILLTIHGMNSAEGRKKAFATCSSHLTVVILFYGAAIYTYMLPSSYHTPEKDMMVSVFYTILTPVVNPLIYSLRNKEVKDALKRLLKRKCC

[4] = biological target: T3, OR identified in the library screening (receptor named per line) (Homo sapiens, UniProt Q8NGX5); assay: Confirmatory dose-response of library hits, wild-type OR vs OR with C-terminus SEQ ID NO: 221 (Table 17); format: cell-based; details: receptor OR10K1, wild-type sequence; read-out: Potency EC50 wild-type (converted)
T3 construct: expressed in transfected cells; host or cells: HEK293T stably expressing human RTP1S(V227I) and RTP2(L220R) (general method)
Description: Selected ligand - OR pairs were then tested in a confirmatory test with a dose response analysis.
Dose-response analysis with the cognate ligand was then performed for both the wild-type and the modified sequence.

[5] = tested on: library of all class II OR with modified C-terminal domain RNKEVKKAIKRLFKRKCCRRR (SEQ ID NO: 221); assay: Screening of the library of all class II OR with single odorants (luciferase); format: cell-based, human; details: full class II OR library (n = 408); maximal non-cytotoxic concentration
Description: All human class II OR and all key genetic variants of these OR were synthesized with a sequence coding for an identical modified C-terminal domain […] (SEQ ID NO: 221) in the vector pcDNA3.1(+) to generate a library of all class II OR with an improved C-terminal domain. Class II OR library members with modified C-terminal domains
Parallel transfection experiments were conducted with all these plasmids (n = 408) and cells expressing the different OR were stimulated with one given ligand at a time, tested at the maximal, clearly non-cytotoxic concentration. In total 26 different ligands were tested on the full library of class II receptors.

[6] = tested on: library of all class I OR with C-terminal domain RNKQIRDALKRLLKRKCCRRR (SEQ ID NO: 741); assay: Screening of the library of all class I OR with carboxylic acid ligands (luciferase); format: cell-based, human; details: full class I OR library (n = 77)
Description: All human class I OR and all key genetic variants of these OR were synthesized with a sequence coding for the identical C-terminal domain […] (SEQ ID NO: 741) in the vector pcDNA3.1(+) to generate a library of all class I OR with an improved C-terminal domain. Class I OR library members
Parallel transfection experiments were conducted with all these plasmids (n = 77, SEQ ID NO: 760, OR51F1 was excluded due to poor plasmid yield) and cells expressing the different OR were stimulated with one given ligand at a time. In total 10 different carboxylic acids ligands were tested on the full library of class I receptors.

OR5A2 [7] = biological target: T4, OR5A2 (Homo sapiens, UniProt Q8NGI9); assay: Luciferase dose-response, wild-type vs changed C-terminus (SEQ ID NO: 86); format: cell-based; details: wild-type OR5A2
T4 construct: expressed in transfected cells; host or cells: HEK293T cells with stably integrated human RTP1S (V227I) and RTP2 (L220R)
T4 sequence (Q8NGI9 1-324): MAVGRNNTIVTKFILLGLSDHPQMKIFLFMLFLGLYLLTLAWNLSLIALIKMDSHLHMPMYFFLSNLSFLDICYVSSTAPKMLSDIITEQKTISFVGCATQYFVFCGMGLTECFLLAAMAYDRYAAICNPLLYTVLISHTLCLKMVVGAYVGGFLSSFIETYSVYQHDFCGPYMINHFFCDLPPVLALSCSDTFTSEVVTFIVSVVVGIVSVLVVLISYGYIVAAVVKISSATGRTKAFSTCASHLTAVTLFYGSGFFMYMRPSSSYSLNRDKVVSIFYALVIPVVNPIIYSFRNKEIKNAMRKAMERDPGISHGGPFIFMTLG
Source text: (§1) To create an expression plasmid, an OR coding sequence fused at the end of TM7 to the desired C-terminus sequence was synthesized by a DNA synthesis service provider (BioCat GmbH, Germany) and inserted into pcDNA3.1(+) (Invitrogen, MA, USA) downstream of the CMV promoter sequence (SEQ ID NO: 82) using BamHI and Notl restriction sites. All the synthetic OR nucleotide sequences described below in Examples 1-15 further contained at their N-terminus a nucleotide sequence encoding a signal peptide (mmLucy-FLAG-rho, SeQ ID NOs: 80, 81) and at the C-terminus the bgh terminator sequence (SEQ ID NO: 83). All the OR expression plasmids also contain a Kozak sequence (GCCACC) between the BamHI restriction site and the start codon of the signal peptide. These plasmids thus contain a constitutively expressed OR gene.

OR5A2 [8] = biological target: T5, OR5A2 (Homo sapiens, UniProt Q8NGI9); assay: as above; format: cell-based; details: OR5A2 with SEQ ID NO: 86
T5 construct: expressed in transfected cells; host or cells: HEK293T cells with stably integrated human RTP1S (V227I) and RTP2 (L220R)
T5 sequence (Q8NGI9 with tags, fused parts or gaps): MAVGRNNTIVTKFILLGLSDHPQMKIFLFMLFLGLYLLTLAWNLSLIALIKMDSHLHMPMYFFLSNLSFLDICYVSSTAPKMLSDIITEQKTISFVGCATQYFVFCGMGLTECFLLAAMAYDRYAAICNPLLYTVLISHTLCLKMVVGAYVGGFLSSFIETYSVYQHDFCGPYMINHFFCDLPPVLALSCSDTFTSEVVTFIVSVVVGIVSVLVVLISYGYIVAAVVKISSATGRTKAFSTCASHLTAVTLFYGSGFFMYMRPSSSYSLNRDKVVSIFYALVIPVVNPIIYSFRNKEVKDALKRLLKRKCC
Source text: as §1

OR5A2 [9] = assay: Dose-dependent luciferase induction by muscone of OR5A2 C-terminal variants; format: cell-based, human; details: modified OR5A2
Source text: as §1
Table 11. Dose-dependent induction OR5A2 with two different variants of the C-terminal sequence motif (Shown is fold-induction of luciferase)

OR5AN1 = biological target: T6, OR5AN1 (Homo sapiens, UniProt Q8NGI8); assay: Chimeric OR5AN1 with C-terminal sequence of OR1N2 (luciferase); format: cell-based
T6 construct: expressed in transfected cells; host or cells: HEK293T stably expressing human RTP1S(V227I) and RTP2(L220R)
Source text: Similarly, the C-terminal sequence of OR5AN1 was replaced with the C-terminal sequence of the ambrettolide receptor OR1 N2.

OR52A5 [10] = assay: cell-based; format: cell-based, human
Source text: as §1

OR52A5 [11] = biological target: T7, OR52A5 (Homo sapiens, UniProt Q9H2C5); assay: cell-based; format: cell-based
T7 construct: expressed in transfected cells; host or cells: HEK293T cells stably expressing human RTP1S (V227I) and RTP2 (L220R)
Source text: as §1
T7 sequence (Q9H2C5 whole entry): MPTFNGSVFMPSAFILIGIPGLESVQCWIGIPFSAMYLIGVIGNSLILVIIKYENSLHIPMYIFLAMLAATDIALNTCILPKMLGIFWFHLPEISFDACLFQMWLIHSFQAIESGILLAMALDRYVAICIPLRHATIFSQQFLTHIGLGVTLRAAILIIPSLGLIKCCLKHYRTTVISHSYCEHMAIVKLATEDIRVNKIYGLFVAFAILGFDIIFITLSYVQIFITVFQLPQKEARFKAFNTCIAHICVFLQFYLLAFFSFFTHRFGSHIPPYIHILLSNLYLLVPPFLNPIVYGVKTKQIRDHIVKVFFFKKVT

OR52A5 [12] = biological target: T8, OR52A5 (Homo sapiens, UniProt Q9H2C5); assay: cell-based; format: cell-based; remark: listed apart in the source
T8 construct: expressed in transfected cells; host or cells: HEK293T cells stably expressing human RTP1S (V227I) and RTP2 (L220R)
Source text: as §1
T8 sequence (Q9H2C5 with tags, fused parts or gaps): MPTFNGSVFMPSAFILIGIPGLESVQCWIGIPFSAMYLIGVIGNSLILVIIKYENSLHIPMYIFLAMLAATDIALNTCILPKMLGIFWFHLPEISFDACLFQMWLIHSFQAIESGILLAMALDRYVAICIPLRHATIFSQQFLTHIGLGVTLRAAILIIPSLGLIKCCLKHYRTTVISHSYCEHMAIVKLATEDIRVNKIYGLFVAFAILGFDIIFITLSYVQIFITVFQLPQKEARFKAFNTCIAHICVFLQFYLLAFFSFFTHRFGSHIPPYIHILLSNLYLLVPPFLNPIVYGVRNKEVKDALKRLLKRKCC

OR9Q2 [13] = biological target: T9, OR9Q2 (Homo sapiens, UniProt Q8NGE9); assay: Luciferase dose-response, wild-type vs changed C-terminus (SEQ ID NO: 86); format: cell-based; details: changed C-term SEQ ID NO: 86; read-out: Potency EC50
T9 construct: expressed in transfected cells; host or cells: HEK293T cells stably expressing human RTP1S (V227I) and RTP2 (L220R)
T9 sequence (Q8NGE9 with tags, fused parts or gaps): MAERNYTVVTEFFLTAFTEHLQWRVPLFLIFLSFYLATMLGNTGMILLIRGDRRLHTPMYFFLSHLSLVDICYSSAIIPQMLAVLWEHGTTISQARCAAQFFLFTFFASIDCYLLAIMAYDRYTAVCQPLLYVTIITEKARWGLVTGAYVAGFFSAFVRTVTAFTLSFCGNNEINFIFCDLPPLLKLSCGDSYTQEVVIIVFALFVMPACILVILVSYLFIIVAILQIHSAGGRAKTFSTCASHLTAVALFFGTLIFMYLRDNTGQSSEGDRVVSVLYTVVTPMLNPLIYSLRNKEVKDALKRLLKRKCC

OR9Q2 [14] = biological target: T10, OR9Q2 (Homo sapiens, UniProt Q8NGE9); assay: as above; format: cell-based; details: wild-type; read-out: Potency EC50
T10 construct: expressed in transfected cells; host or cells: HEK293T cells stably expressing human RTP1S (V227I) and RTP2 (L220R)
T10 sequence (Q8NGE9 whole entry): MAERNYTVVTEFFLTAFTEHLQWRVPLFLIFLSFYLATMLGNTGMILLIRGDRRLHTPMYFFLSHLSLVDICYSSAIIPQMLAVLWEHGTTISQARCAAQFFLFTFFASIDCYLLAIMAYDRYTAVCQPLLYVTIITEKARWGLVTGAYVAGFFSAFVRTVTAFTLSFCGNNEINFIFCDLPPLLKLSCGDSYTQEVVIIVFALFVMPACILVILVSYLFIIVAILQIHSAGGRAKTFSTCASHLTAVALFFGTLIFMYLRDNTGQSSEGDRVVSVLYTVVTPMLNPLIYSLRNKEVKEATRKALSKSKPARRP

[15] = changed C-term SEQ ID NO: 86, read-out: Potency EC50

T1 sequence (Q8NH00 35-348): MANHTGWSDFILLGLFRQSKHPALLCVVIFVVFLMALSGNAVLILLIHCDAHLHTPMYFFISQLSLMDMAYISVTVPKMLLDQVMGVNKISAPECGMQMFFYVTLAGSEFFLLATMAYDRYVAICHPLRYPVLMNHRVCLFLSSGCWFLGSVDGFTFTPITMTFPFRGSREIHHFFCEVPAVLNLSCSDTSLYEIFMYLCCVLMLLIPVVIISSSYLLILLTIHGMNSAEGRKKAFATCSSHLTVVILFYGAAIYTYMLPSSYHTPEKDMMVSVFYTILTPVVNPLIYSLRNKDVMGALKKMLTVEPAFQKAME
T6 sequence (Q8NGI8 with tags, fused parts or gaps limits assumed): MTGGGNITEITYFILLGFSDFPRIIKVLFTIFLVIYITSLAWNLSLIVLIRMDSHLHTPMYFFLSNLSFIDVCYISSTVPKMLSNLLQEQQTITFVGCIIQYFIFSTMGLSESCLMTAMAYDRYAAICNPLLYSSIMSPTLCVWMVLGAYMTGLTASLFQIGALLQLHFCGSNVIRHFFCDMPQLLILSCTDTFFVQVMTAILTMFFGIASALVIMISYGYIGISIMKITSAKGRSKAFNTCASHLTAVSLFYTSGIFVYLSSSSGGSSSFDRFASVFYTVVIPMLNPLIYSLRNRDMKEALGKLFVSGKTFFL

Compound: SC1CCCC1 [Cyclopentanethiol]
- Detection threshold; concentration for 2-fold induction (OR2T4 [1]): n.i. (>> 316) µM
- EC50 (OR2T4 [1]; wild-type, read-out: Potency EC50): > 316 µM
- Comments on efficacy (OR2T4 [2]): No induction wild-type
- Fold-improvement potency (OR2T4 [2]): >>2
- Fold-improvement threshold (OR2T4 [2]): >>100
- Detection threshold; concentration for 2-fold induction (OR2T4 [3]): 3.89 µM
- ligands identified in screening of sulfur odorants (OR2T4 [3]; OR2T4 with SEQ ID NO: 86): good ligands
- EC50 (OR2T4 [3]; [15]): 14.6 µM

Compound: O=C(OCc1ccccc1)c1ccccc1O [Benzyl salicylate]
- Activated OR and OR variants [5]: OR2AG2(Y28C)

Compound: C[C@@H]1CCCCCCCCCCCCC(=O)C1 [Muscone]
- activation of the wild-type receptor (OR5A2 [7]): No activation
- concentration at which activation occurs (OR5A2 [8]): 1 µM
- Activated OR and OR variants [5]: OR5AN1, OR5A2
- concentration at which induction starts (OR5A2 [9]): 0.03 µM
- functional response (OR5AN1): not showing any functional response

Compound: CCCCC(CC)CCC(=O)O (stereo not drawn) [4-ethyloctanoic acid]
- Comments on efficacy (OR52A5 [10]): 2.5-fold lower maximal induction for wild-type
- Fold-improvement threshold (OR52A5 [10]): >10
- Detection threshold; concentration for 2-fold induction (OR52A5 [11]): >1000 µM
- Detection threshold; concentration for 2-fold induction (OR52A5 [12]): 101 µM
- EC50 (OR52A5 [12]; [15]): 300 µM

Compound: Cc1ccc(O)cc1 [Para-Cresol]
- EC50 (OR9Q2 [13]): 2.8 µM
- EC50 (OR9Q2 [14]): 30.7 µM

More lines, now with the values ahead:

- EC50 [4]: 6.8 µM
Compound: CC(C)CCc1ccc2c(c1)OCC(=O)CO2 [7-(3-Methylbutyl)-benzo[b][1,4]dioxepin-3-one]

- Activated OR and OR variants [6]: No activation observed
Compound: CCC=C(C)C(=O)O [2-Methyl-2-pentenoic acid]

- Activated OR and OR variants [6]: No activation observed
Compound: CC(C)CC(=O)O [3-Methylbutanoic acid]
